# Read-outs that look alike come from different tables or passages of the source. Marks after values point to notes of the source that are not given here.
# Columns and labels:
# [1] = Plasma protein binding via ultracentrifugation (UC); format: in vitro ADME, human; details: pH 7.4
# Procedure: (§1) Pooled human plasma (n = 3–4 donors) was obtained by centrifugation of blood (collected by the Australian Red Cross Blood Service, Melbourne, Australia or the Volunteer Blood Donor Registry, Clinical Translation Centre, Walter & Eliza Hall Institute of Medical Research, Parkville, Australia), or sourcing pooled plasma directly from commercial sources (Innovative Research Inc, MI) and stored frozen at − 80 °C.
# (§2) An ultracentrifugation method adapted from a previous publication was initially used to assess plasma protein binding and binding in the other media. […] Additional ultracentrifuge tubes containing spiked matrix were maintained at 37 °C, 5% or 10% CO2 or normal atmosphere conditions, with aliquots being taken within 0.5 h of the start and at the end of ultracentrifugation to serve as controls for the assessment of stability and to obtain a measure of the total concentration (Ctotal). Following ultracentrifugation, the pH was checked and an aliquot of protein-free supernate was taken from each ultracentrifuge tube for determination of the unbound concentration (Cunbound).
# (§3) Total matrix and protein free samples were analysed using a matrix matching approach whereby each sample was mixed in a 1:1 ratio with the opposite blank medium (i.e. blank total matrix or blank protein free buffer). For example, plasma samples were mixed with blank pH 7.4 buffer whereas plasma supernatant samples were mixed with blank plasma. Each of the sample sets were then assayed against a common calibration curve prepared in a 1:1 mixture of total matrix and protein free pH 7.4 buffer. […] The standard deviation for fu was calculated using the propagation of errors approach as described previously. The potential for compound degradation was assessed by comparing the average value for Ctotal at the start and end of the experiment.
# [2] = Binding to human liver microsomes via ultracentrifugation; format: in vitro ADME; details: human, read-out: Fraction unbound, HLM
# Procedure: A suspension of human liver microsomes (HLM, XenoTech LLC, Lenexa, KS, USA) was prepared in 0.1 M phosphate buffer (pH 7.4) at a protein concentration of 0.4 mg/mL immediately prior to the experiment.
# as §2, §3
# [3] = Octanol/pH 7.4 buffer partition coefficient, shake flask; details: for Measured Log D7.4: shake flask, 37 °C
# Procedure: Partition coefficients between octanol and pH 7.4 buffer were measured using a shake flask method. A stock solution of test compound in octanol was prepared at a concentration between 3 and 30 mg/mL based on the expected partition coefficient value. This stock solution was then diluted 3- and 10-fold with octanol and used to prepare the octanol phase for the partitioning experiments. Two different dilutions were used to confirm that there were no saturation effects. Phosphate buffered saline was prepared by combining 67 mM disodium hydrogen orthophosphate and sodium dihydrogen orthophosphate (both prepared in 43 mM NaCl) to a final pH of 7.4.
# Partitioning experiments were conducted by mixing equal volumes of the octanol (containing test compound) and aqueous phases and placing on a vibrating plate mixer in an incubator at 37 °C. […] An aliquot of the aqueous phase was carefully removed and centrifuged again to ensure no contamination from the octanol phase before sampling in duplicate and diluting with aqueous methanol for analysis. Diluted samples were analysed by LC–MS along with calibration standards (Additional file 1: Table S2) and partition coefficients were calculated from the ratio of the mean octanol to buffer concentration after accounting for the dilution factors. The partitioning results for the two time points were used to confirm that the partitioning experiment had reached equilibrium.
# [4] = Plasma protein binding via rapid equilibrium dialysis (RED), 10% plasma; format: in vitro ADME, human; details: human, 10% pooled plasma (diluted 1:10), pH 7.4, RED, 10% plasma corrected for dilution; for fraction unbound at 24 h: presaturation of device and 24 h dialysis; for fraction unbound at 6 h: 6 h dialysis
# Procedure: as §1
# Plasma was diluted 1:10 with pH 7.4 phosphate buffer (prepared by mixing 0.1 M sodium dihydrogen phosphate and 0.1 M disodium hydrogen phosphate (both containing 0.04 M NaCl) to pH 7.4) and spiked with compound to achieve a total measured concentration of ~ 1000–3000 ng/mL. Diluted plasma was vortex mixed briefly and aliquots (n = 3–4) were transferred to RED (Thermo Fisher Scientific, Waltham, MA) units that were placed at 37 °C under ambient atmosphere on a plate shaker. […] At the end of the dialysis period, samples were removed from both the donor and dialysate chambers of the RED units. […] Fraction unbound values were calculated for each individual RED unit and the mean and SD calculated for n = 3–4 replicates.
# Briefly, the RED device was exposed for two 30 min periods and one overnight period to fresh solutions of compound prepared in pH 7.4 buffer at approximately 10% of the total dialysis concentration. Following the preincubations, solutions were removed from the RED device and discarded. […] Samples were removed and analysed as described above.
# For binding assessments using 10% plasma, the unbound fraction (fu) in neat plasma was calculated using the average values for Ctotal and Cunbound and Eq.
# human plasma = details: methods UF, ED, EP or not described per compound, ref [6]–[22] of Additional file 1; cited from earlier work
# [5] = Ionization constants by potentiometric titration; format: physicochemical; details: mean ± SD, n = 3 titrations; for pKa: aqueous solution (DMSO stock diluted 1:10 with water), read-out: Measured pKa
# Procedure: The autotitrator was controlled by Tiamo software (Version 1.3). pH measurements were conducted using a Metrohm LL Micro glass electrode which was calibrated on the day of use with calibration standards at pH 2, 4, 7 and 10. All reagents were standardized (directly or indirectly) against potassium hydrogen phthalate (Sigma-Aldrich, A.C.S. Acidimetric Standard). Titrant solutions were protected from carbon dioxide absorption by flushing with nitrogen before sealing or by the incorporation of a drying tube filled with self-indicating soda lime into the titration reaction vessel set-up.
# Aliquots were introduced directly into the titration vessel and diluted 1:10 with water (typical final compound concentration of 0.5 mM).
# human liver microsomes = assay: in vitro; details: for HLM CLint: microsomes
# Summary of the method: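 Intrinsic clearance (µL/min/mg protein) came from the first-order substrate-depletion rate in human liver microsomes, using only the initial log-linear phase where kinetics deviated. Samples were quenched at 2, 5, 15, 30 and 60 min and quantified by LC–MS. Unbound CLint was obtained by dividing by microsomal fu.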
# [6] = human, neat pooled plasma, ultracentrifugation, neat plasma, read-out: Fraction unbound, human plasma
# [7] = liver microsomes, pH 7.4, 0.4 mg/mL protein
# [8] = human, pooled plasma, ultracentrifugation, instability evident, estimate only, read-out: Fraction unbound, human plasma
SMILES,"fraction unbound at […] [1, 6]","fraction unbound at […] [2, 7]","logD ([3]; octanol/pH 7.4 buffer, pH 7.4)",Literature fu (human plasma),also measured
CO[C@H]1O[C@@H]2O[C@@]3(C)CC[C@H]4[C@H](C)CC[C@@H]([C@H]1C)[C@@]24OO3 [Artemether],0.1,0.5 ± 0.052,3.7,0.046,fraction unbound at 24 h [4]: 0.066
C[C@H]1[C@H](N2CCS(=O)(=O)CC2)O[C@@H]2O[C@@]3(C)CC[C@H]4[C@H](C)CC[C@@H]1[C@@]24OO3 [Artemisone],0.12 ± 0.006,0.44 ± 0.024,2.82,–,Measured pKa ([5]; basic pKa (B)): no ionizations could be detected
C[C@H]1[C@H](OC(=O)CCC(=O)O)O[C@@H]2O[C@@]3(C)CC[C@H]4[C@H](C)CC[C@@H]1[C@@]24OO3 [Artesunate],–,–,–,–,"fraction unbound at […] [1, 8]: 0.27 ± 0.008; pKa ([5]; acidic pKa (A)): 4.7 ± 0.04"
O=C1C(O)=C([C@H]2CC[C@H](c3ccc(Cl)cc3)CC2)C(=O)c2ccccc21 [Atovaquone],0.002,~0.002,5.3,0.001,fraction unbound at 24 h [4]: < 0.0001
CC[C@H]1OC(=O)[C@H](C)[C@@H](O[C@H]2C[C@@](C)(OC)[C@@H](O)[C@H](C)O2)[C@H](C)[C@@H](O[C@@H]2O[C@H](C)C[C@H](N(C)C)[C@H]2O)[C@](C)(O)C[C@@H](C)CN(C)[C@H](C)[C@@H](O)[C@]1(C)O [Azithromycin],0.71,0.7 ± 0.06,1.1,0.5-0.88,fraction unbound at 6 h [4]: 0.34
CC(C)NC(=N)NC(=N)Nc1ccc(Cl)c(Cl)c1 [Chlorproguanil],0.1 ± 0.007,0.052 ± 0.004,1.1,–,–
CC1(C)N=C(N)N=C(N)N1c1ccc(Cl)cc1 [Cycloguanil],0.75 ± 0.04,0.72 ± 0.083,–,–,pKa ([5]; basic pKa (B)): 11.4 ± 0.3
Cc1cc(Nc2ccc(S(F)(F)(F)(F)F)cc2)n2nc(C(C)(F)F)nc2n1 [DSM265],0.008,–,4.03,–,Measured pKa ([5]; basic pKa (B)): no ionizations could be detected; fraction unbound at 6 h [4]: 0.002; fraction unbound at 24 h [4]: 0.0018 ± 0.0001
C[C@H]1[C@@H](O)O[C@@H]2O[C@@]3(C)CC[C@H]4[C@H](C)CC[C@@H]1[C@@]24OO3 [Dihydroartemisinin],–,–,2.3,0.092,"fraction unbound at […] [1, 8]: 0.21 ± 0.01; fraction unbound at […] ([1]; human plasma, fraction unbound, read-out: Plasma fu): 0.21; fraction unbound at […] ([2]; liver microsomes, pH 7.4, instability evident, estimate only): 0.87 ± 0.1; logD ([3]; octanol/pH 7.4 phosphate buffered saline, pH 7.4): 2.3"
C[C@H]1c2cccc(O)c2C(=O)C2=C(O)[C@]3(O)C(=O)C(C(N)=O)=C(O)[C@@H](N(C)C)[C@@H]3[C@@H](O)[C@@H]21 [Doxycyclin],0.23,0.93 ± 0.045,–,0.12,fraction unbound at 6 h [4]: 0.23 ± 0.09
COc1cc2[nH]c(C)c(-c3ccc(Oc4ccc(OC(F)(F)F)cc4)cc3)c(=O)c2cc1Cl [ELQ300],–,–,–,–,Unbound CLint (human liver microsomes): < 3500^c µL/min/mg; HLM CLint (human liver microsomes; human): < 7^b µL/min/mg
CN(C)C[c-]1cccc1CNc1ccnc2cc(Cl)ccc12.[Fe+2].c1cc[cH-]c1 (centres unmarked) [Ferroquine],–,–,–,–,Measured Log D7.4 ([3]; octanol/pH 7.4 buffer): 3.39; Unbound CLint (human liver microsomes): 108 µL/min/mg; HLM CLint (human liver microsomes; human): 29.2 µL/min/mg
CCCCN(CCCC)CCC(O)c1cc2c(Cl)cc(Cl)cc2c2cc(C(F)(F)F)ccc12 (centres unmarked) [Halofantrine],0.13,0.002 ± 0.0002,–,–,"Unbound CLint (human liver microsomes; human, 1 µM, pH 7.4): 13,500 µL/min/mg; fraction unbound at 24 h [4]: < 0.0001"
C[C@H]1Cc2c([nH]c3cc(Cl)c(F)cc23)[C@@]2(N1)C(=O)Nc1ccc(Cl)cc12 [KAE609],0.057,0.019 ± 0.001,–,–,pKa ([5]; basic pKa (B)): 5.1 ± 0.02; fraction unbound at 6 h [4]: 0.002; fraction unbound at 24 h [4]: 0.0016 ± 0.0001
CC1(C)c2nc(-c3ccc(F)cc3)c(Nc3ccc(F)cc3)n2CCN1C(=O)CN [KAF156],0.11,0.14 ± 0.006,2.06,–,pKa ([5]; basic pKa (B)): 8.4 ± 0.06
CCCCN(CCCC)CC(O)c1cc(Cl)cc2c1-c1ccc(Cl)cc1/C2=C/c1ccc(Cl)cc1 (centres unmarked) [Lumefantrine],–,–,–,0.003,fraction unbound at 6 h [4]: < 0.0001; fraction unbound at 24 h [4]: < 0.0001
O=C(NCCN1CCCC1)c1cc(-c2ccc(CN3CCOCC3)cc2)nc2ccc(F)cc12 [M5717],–,–,–,0.23,Unbound CLint (human liver microsomes): 22.2 µL/min/mg; HLM CLint (human liver microsomes; human): 11.1 µL/min/mg
COc1cc(N[C@H](C)CCCN)c2nccc(C)c2c1Oc1ccc(Cl)c(Cl)c1 [NPC1161B],–,–,–,–,HLM CLint (human liver microsomes; human): < 7^b µL/min/mg
CC(C)(C)NCc1cc(Nc2ccnc3cc(Cl)ccc23)c2c(c1O)CCCC2 [Naphthoquine],–,–,–,–,Measured Log D7.4 ([3]; octanol/pH 7.4 buffer): 4.18; Unbound CLint (human liver microsomes): 68.6 µL/min/mg; HLM CLint (human liver microsomes; human): 14.4 µL/min/mg
Clc1ccc2c(N3CCN(CCCN4CCN(c5ccnc6cc(Cl)ccc56)CC4)CC3)ccnc2c1 [Piperaquine],0.042,0.013 ± 0.002,–,< 0.001,fraction unbound at 24 h [4]: 0.0003 ± 0.0001
COc1cc(NC(C)CCCN)c2ncccc2c1 (centres unmarked) [Primaquine],–,–,–,0.35-0.55,"fraction unbound at […] ([1]; human, ultracentrifugation, neat plasma, read-out: Fraction unbound, human plasma): 0.26 ± 0.023; fraction unbound at […] ([2]; microsomes, pH 7.4, 0.4 mg/mL protein): 0.56 ± 0.05; Log D7.4 ([3]; pH 7.4): 0.54; logD ([3]; pH 7.4): 0.54"
[H]/N=C(\N/C(=N/[H])Nc1ccc(Cl)cc1)NC(C)C [Proguanil],0.34 ± 0.01,0.33 ± 0.014,0.27,0.25,–
COc1ccc2nc3cc(Cl)ccc3c(Nc3cc(CN4CCCC4)c(O)c(CN4CCCC4)c3)c2n1 [Pyronaridine],0.21,0.29 ± 0.018,0.23,< 0.35,fraction unbound at 6 h [4]: 0.09 ± 0.012
CS(=O)(=O)O.FC1CCN(CCOc2ccc(C3CCC4(CC3)OOC3(OO4)C4CC5CC(C4)CC3C5)cc2)CC1 (centres unmarked) [TDD-E209],–,–,–,–,"Unbound CLint (human liver microsomes): 85,000 µL/min/mg"
